Laboratory results: patent US8933230B2, “Phosphorus-containing group-substituted quinoline, its preparation process, medical composition containing the compounds and application” (priority 2011, dated 2015)

Columns and labels:
PKNB (M. tuberculosis) = target: T1, PKNB (M. tuberculosis) (Mycobacterium tuberculosis, UniProt P9WI81); test: KinomeScan kinase panel; assay type: binding
T1 construct: purchased DiscoveRx Corporation (KinomeScan)

c-MET = target: T2, c-MET (Homo sapiens, UniProt P08581); test: c-MET kinase phosphorylation in MKN45 cells (sandwich ELISA); assay type: cell-based; conditions: without stimulation, mean value of two testing results, read-out: IC50 values in the cell, c-MET
T2 construct: cell line MKN45 having endogenous high expression wild type c-MET; endogenous in cells; host or cells: MKN45
Procedure: (§1) Inhibitory activity on the kinases in tumor cells: In this example, the compound prepared in Example 10, N1-[4-[[7-[[1-(diethoxyphosphorylmethyl)-4-piperidinyl]methoxyl]-6-methoxyl-4-quinolyl]oxyl]-3-fluorophenyl]-N1′-(4-fluorophenyl)cyclopropane-1,1-dicarboxamide is tested in tumor cells by ProQinase GmbH corporation (Breisacher Str. 117, D-79106 Freiburg, Germany. www.proqinase.com) for the inhibitory activity on the following kinases: c-KIT, c-MET, VEGFR2 and PDGFR-β. The test includes the following steps:
(§2) Firstly, the compound according to present invention is dissolved in dimethyl sulfoxide (DMSO) to prepare a 10 mM stock solution, which is diluted serially according to the concentration range shown in Table 6:
c-MET kinase: in the test experiment of c-MET kinase phosphorylation in the cells, human gastric cancer cell line MKN45 having endogenous high expression wild type c-MET (wild-type c-MET) is used. Such high expression of c-MET causes the tyrosine of c-MET receptor kinases constantly self-phosphorylated without ligands. MKN45 cells are inoculated in DMEM culture solution containing 10% FCS in a multi-well cell culture dish. The compound of the invention is added to the cells after serum overnight starvation, then the cells are cultured in a medium without serum. […]

c-KIT = target: T3, c-KIT (Homo sapiens, UniProt P10721); test: c-KIT kinase phosphorylation in M07e cells (sandwich ELISA); assay type: cell-based; conditions: SCF 100 ng/mL 3 min, mean value of two testing results, read-out: IC50 values in the cell, c-KIT
T3 construct: cell line M07e having endogenous high expression wild type c-KIT; endogenous in cells; host or cells: M07e
Procedure: as §1, §2
c-KIT kinase: in the test experiment of KIT kinase phosphorylation in the cells, human acute megakaryocytic leukemia cell line M07e having endogenous high expression wild type c-KIT is used. When these cells are stimulated with human stem cell factor (SCF), the tyrosine of KIT receptor kinases is self-phosphorylated. M07e cells are inoculated in RPMI containing 20% fetal calf serum (FCS) and 10 ng/ml GM-CSF in a multi-well cell culture dish. The compound of the invention is added to the cells after overnight starvation of serum and growth factor, then the cells are cultured in a medium without serum. […]

AXL = target: T4, AXL (Homo sapiens, UniProt P30530); test: KinomeScan kinase panel; assay type: binding
T4 construct: purchased DiscoveRx Corporation (KinomeScan)
Procedure: (§3) In this example, the compound prepared in Example 10, N1-[4-[[7-[[1-(diethoxyphosphorylmethyl)-4-piperidinyl]methoxyl]-6-methoxyl-4-quinolyl]oxyl]-3-fluorophenyl]-N1′-(4-fluorophenyl)cyclopropane-1,1-dicarboxamide is tested for the inhibitory effect in the 442-kinase panel of KinomeScan™ (www.kinomescan.com) from DiscoveRx Corporation (4215 Sorrento Valley Blvd, San Diego, Calif. 92121) at 1000 nM of the compound concentration, the results are shown in the following Table 5:
(§4) For the detailed information of the screening technique, see Fabian, M. A. et al, Nat., Biotechnol. 2005, 23, 329 and Karaman, M. W. et al, Nat., Biotechnol. 2008, 26, 127. It can be seen from the following representative results that, the compound according to the present invention has significant inhibitory effect on kinases including c-Met, KDR or VEGFR2, RET, PDGFR-β, c-KIT, Flt3, MEK5, DDR1, LOK, CSF1R, EPHA7, EPHA8, EPHB6, MKNK2, BLK, HIPK4, HCK, Flt4 and the mutants thereof

PRKCI = target: T5, PRKCI (Homo sapiens, UniProt P41743); test: KinomeScan kinase panel; assay type: binding
T5 construct: purchased DiscoveRx Corporation (KinomeScan)
Procedure: as §3, §4

BMX = target: T6, BMX (Homo sapiens, UniProt P51813); test: KinomeScan kinase panel; assay type: binding
T6 construct: purchased DiscoveRx Corporation (KinomeScan)
Procedure: as §3, §4

ULK3 = target: T7, ULK3 (Homo sapiens, UniProt Q6PHR2); test: KinomeScan kinase panel; assay type: binding
T7 construct: purchased DiscoveRx Corporation (KinomeScan service)
Procedure: as §3, §4

SNARK = target: T8, SNARK (Homo sapiens, UniProt Q9H093); test: KinomeScan kinase panel; assay type: binding
T8 construct: purchased DiscoveRx Corporation (KinomeScan)
Procedure: as §3, §4

EPHB3 = target: T9, EPHB3 (Homo sapiens, UniProt P54753); test: KinomeScan kinase panel; assay type: binding
T9 construct: purchased DiscoveRx Corporation (KinomeScan)
Procedure: as §3, §4

PIM3 = target: T10, PIM3 (Homo sapiens, UniProt Q86V86); test: KinomeScan kinase panel; assay type: binding
T10 construct: purchased DiscoveRx Corporation (KinomeScan)
Procedure: as §3, §4

PKN1 = target: T11, PKN1 (Homo sapiens, UniProt Q16512); test: KinomeScan kinase panel; assay type: binding
T11 construct: purchased DiscoveRx Corporation (KinomeScan)
Procedure: as §3, §4

NLK = target: T12, NLK (Homo sapiens, UniProt Q9UBE8); test: KinomeScan kinase panel; assay type: binding
T12 construct: purchased DiscoveRx Corporation (KinomeScan panel)
Procedure: as §3, §4

MLK1 = target: T13, MLK1 (Homo sapiens, UniProt P80192); test: KinomeScan kinase panel; assay type: binding
T13 construct: purchased DiscoveRx Corporation (KinomeScan)
Procedure: as §3, §4

FGFR3 = target: T14, FGFR3 (Homo sapiens, UniProt P22607); test: KinomeScan kinase panel; assay type: binding
T14 construct: purchased DiscoveRx Corporation (KinomeScan)
Procedure: as §3, §4

TGFBR1 = target: T15, TGFBR1 (Homo sapiens, UniProt P36897); test: KinomeScan kinase panel; assay type: binding
T15 construct: purchased DiscoveRx Corporation (KinomeScan)
Procedure: as §3, §4

VEGFR2 = VEGFR2 (Homo sapiens, UniProt P35968); test: VEGFR2 kinase phosphorylation in HUE cells (sandwich ELISA); assay type: cell-based; parameters: cell line HUE having endogenous high expression vascular endothelial growth factor-R2 (VEGFR2); endogenous in cells; host or cells: HUE; conditions: VEGF-A 100 ng/mL 3 min, mean value of two testing results, read-out: IC50 values in the cell, VEGFR2
Procedure: as §1, §2
VEGFR2 kinase: in the test experiment of VEGFR2 kinase phosphorylation in the cells, a spontaneous immortalized human umbilical vein endothelial cell line HUE having endogenous high expression vascular endothelial growth factor-R2 (VEGFR2) is used. When these cells are simulated with human vascular endothelial growth factor-A (VEGF-A), it causes the tyrosine of VEGFR2 receptor kinases self-phosphorylated. HUE cells are inoculated in endothelial cell growth medium (ECGM) containing 10% FCS in a multi-well cell culture dish. […]

T11 sequence (Q16512 whole entry): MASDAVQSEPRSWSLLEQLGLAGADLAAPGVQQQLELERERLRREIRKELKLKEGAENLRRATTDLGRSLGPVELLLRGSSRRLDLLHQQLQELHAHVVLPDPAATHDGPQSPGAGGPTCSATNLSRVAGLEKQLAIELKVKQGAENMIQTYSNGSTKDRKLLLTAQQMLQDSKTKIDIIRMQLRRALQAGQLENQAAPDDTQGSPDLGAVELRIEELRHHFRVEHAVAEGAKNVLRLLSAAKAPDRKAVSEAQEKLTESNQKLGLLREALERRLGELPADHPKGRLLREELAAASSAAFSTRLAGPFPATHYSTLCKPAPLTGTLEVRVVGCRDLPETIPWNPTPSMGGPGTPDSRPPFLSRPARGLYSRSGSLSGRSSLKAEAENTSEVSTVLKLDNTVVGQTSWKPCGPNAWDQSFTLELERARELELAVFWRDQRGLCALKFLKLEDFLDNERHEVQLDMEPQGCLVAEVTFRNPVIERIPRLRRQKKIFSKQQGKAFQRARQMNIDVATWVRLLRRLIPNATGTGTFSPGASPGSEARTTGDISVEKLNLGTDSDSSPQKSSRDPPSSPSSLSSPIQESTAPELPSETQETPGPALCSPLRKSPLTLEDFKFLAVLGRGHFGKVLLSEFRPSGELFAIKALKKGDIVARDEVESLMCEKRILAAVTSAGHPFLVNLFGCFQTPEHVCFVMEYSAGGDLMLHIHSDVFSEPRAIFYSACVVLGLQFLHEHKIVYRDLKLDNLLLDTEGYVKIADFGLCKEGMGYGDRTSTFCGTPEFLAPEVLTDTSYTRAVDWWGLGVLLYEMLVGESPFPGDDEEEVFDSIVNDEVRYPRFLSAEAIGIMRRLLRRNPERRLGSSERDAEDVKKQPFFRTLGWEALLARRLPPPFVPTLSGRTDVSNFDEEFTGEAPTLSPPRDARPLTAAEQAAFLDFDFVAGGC
T14 sequence (P22607 23-806): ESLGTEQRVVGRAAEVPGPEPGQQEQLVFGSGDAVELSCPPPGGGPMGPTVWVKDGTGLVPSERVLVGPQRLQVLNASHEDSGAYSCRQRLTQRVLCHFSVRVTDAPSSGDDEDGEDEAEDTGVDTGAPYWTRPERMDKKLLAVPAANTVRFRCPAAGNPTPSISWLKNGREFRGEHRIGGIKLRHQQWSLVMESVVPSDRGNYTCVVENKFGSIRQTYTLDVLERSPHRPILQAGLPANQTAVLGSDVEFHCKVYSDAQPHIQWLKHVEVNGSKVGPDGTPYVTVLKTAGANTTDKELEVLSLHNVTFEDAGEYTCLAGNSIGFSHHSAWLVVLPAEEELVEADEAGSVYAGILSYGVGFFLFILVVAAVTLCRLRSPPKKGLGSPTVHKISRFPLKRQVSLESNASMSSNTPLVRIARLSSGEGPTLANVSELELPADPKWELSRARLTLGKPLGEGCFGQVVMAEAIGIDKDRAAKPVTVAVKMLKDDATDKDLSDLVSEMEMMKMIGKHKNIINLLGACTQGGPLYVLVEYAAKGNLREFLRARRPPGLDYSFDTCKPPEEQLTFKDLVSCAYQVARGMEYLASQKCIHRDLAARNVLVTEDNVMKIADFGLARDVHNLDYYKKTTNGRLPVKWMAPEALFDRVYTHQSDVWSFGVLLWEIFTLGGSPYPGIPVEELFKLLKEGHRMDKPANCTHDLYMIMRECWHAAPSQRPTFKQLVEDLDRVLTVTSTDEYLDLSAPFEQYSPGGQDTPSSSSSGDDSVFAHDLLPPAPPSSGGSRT
Chain of VEGFR2 (P35968 20-1356): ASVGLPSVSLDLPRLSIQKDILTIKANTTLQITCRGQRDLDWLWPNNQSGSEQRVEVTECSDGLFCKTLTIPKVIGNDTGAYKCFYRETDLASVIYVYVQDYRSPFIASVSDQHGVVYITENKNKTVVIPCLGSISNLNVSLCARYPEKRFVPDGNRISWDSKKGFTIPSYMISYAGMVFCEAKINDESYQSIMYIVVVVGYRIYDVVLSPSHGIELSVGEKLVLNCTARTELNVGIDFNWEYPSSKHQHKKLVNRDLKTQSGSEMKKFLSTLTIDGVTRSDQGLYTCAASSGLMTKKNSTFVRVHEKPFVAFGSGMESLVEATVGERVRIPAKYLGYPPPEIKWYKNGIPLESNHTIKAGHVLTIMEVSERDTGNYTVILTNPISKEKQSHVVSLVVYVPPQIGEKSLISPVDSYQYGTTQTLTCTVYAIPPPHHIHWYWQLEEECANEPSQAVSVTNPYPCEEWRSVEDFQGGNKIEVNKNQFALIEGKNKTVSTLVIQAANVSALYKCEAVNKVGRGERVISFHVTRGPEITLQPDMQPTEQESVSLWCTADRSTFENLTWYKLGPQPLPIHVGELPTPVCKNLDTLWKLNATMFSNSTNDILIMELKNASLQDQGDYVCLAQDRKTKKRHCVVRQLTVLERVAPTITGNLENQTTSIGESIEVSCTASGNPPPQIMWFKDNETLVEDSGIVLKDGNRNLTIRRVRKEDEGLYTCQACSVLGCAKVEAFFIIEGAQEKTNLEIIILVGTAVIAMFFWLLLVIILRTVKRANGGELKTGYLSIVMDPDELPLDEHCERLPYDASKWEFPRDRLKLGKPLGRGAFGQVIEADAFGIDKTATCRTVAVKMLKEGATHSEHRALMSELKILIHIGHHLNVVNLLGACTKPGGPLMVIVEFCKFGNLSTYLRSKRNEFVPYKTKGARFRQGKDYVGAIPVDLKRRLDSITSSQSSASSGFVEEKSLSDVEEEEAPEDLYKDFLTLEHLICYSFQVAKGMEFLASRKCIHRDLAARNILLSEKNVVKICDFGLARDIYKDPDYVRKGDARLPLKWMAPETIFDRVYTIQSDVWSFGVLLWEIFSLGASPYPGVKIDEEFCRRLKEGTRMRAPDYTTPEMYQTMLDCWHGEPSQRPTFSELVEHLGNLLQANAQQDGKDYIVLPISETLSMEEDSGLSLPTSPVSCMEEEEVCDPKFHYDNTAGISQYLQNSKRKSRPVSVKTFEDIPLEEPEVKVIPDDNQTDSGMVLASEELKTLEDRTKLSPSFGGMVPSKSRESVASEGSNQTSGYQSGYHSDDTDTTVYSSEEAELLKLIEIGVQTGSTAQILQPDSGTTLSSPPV
T8 sequence (Q9H093 whole entry): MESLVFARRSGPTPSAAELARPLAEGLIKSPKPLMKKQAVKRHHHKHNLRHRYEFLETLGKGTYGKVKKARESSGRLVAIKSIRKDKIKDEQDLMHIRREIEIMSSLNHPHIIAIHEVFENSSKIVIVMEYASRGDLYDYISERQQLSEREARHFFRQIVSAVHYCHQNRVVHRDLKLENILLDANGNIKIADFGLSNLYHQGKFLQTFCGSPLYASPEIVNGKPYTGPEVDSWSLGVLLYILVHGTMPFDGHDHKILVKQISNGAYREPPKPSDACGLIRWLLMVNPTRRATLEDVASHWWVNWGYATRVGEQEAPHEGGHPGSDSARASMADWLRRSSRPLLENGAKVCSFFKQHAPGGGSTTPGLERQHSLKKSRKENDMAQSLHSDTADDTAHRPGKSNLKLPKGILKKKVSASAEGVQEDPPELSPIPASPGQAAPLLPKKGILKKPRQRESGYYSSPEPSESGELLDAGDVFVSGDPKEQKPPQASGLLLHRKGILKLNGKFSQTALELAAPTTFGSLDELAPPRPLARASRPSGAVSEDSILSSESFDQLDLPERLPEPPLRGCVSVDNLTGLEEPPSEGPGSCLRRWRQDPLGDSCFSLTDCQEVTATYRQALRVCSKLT
T4 sequence (P30530 26-894): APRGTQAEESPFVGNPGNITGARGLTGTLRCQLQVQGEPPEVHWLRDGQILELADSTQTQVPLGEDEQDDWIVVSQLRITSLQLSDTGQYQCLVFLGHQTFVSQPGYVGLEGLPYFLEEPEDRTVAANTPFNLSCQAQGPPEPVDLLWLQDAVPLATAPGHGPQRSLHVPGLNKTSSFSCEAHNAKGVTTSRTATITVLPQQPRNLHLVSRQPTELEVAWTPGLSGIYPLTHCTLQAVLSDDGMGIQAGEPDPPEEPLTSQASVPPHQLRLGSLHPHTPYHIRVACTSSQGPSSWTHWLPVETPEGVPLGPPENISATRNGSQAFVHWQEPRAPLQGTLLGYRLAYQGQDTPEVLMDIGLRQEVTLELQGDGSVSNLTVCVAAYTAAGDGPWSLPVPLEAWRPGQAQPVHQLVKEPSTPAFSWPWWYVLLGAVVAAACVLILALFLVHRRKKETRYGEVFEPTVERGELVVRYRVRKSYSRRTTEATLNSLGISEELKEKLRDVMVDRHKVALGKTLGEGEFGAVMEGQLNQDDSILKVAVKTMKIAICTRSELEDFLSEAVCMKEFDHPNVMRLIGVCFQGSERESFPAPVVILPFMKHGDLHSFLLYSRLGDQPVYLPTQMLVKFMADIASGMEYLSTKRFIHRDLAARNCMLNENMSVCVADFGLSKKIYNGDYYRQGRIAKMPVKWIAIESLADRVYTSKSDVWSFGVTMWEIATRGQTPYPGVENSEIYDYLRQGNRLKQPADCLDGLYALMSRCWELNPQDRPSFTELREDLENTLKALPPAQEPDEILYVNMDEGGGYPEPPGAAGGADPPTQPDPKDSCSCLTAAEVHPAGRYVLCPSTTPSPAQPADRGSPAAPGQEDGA

CCOP(=O)(CN1CCC(COc2cc3nccc(Oc4ccc(NC(=O)C5(C(=O)Nc6ccc(F)cc6)CC5)cc4F)c3cc2OC)CC1)OCC [Example 10, N1-[4-[[7-[[1-(diethoxyphosphorylmethyl)-4-piperidinyl]methoxyl]-6-methoxyl-4-quinolyl]oxyl]-3-fluorophenyl]-N1′-(4-fluorophenyl)cyclopropane-1,1-dicarboxamide]
% Ctrl@1000 nM (PKNB (M. tuberculosis)): 96 % Ctrl
IC50 (c-MET): 17 nM
IC50 (c-KIT): 27 nM
% Ctrl@1000 nM (AXL): 8 % Ctrl
% Ctrl@1000 nM (PRKCI): 100 % Ctrl
% Ctrl@1000 nM (BMX): 92 % Ctrl
% Ctrl@1000 nM (ULK3): 82 % Ctrl
% Ctrl@1000 nM (SNARK): 100 % Ctrl
% Ctrl@1000 nM (EPHB3): 36 % Ctrl
% Ctrl@1000 nM (PIM3): 67 % Ctrl
% Ctrl@1000 nM (PKN1): 100 % Ctrl
% Ctrl@1000 nM (NLK): 100 % Ctrl
% Ctrl@1000 nM (MLK1): 83 % Ctrl
% Ctrl@1000 nM (FGFR3): 69 % Ctrl
% Ctrl@1000 nM (TGFBR1): 100 % Ctrl
IC50 (VEGFR2): 0.43 nM
